Measurements: article PMC10256634, “Comparative in vivo toxicokinetics of silver powder, nanosilver and soluble silver compounds after oral administration to rats” (Archives of Toxicology, 2023)
Values joined by “and” are separate entries in the source; they are usually repeats but may differ in a detail not shown here. Equal entries are not always repeated.

Legend:
[1] = Total Ag content in tissues after 28 days repeated oral dosing (ICP-MS); format: in vivo, Sprague–Dawley rats
Source text: Comparative TK data for the various test items were obtained after single doses, and repeated dose administration for 28 days. This was based on measurement of Ag levels in whole blood at various timepoints, and also total Ag content in tissues (in the repeated dose study phase). This approach facilitated a direct quantitative comparison of parameters such as bioavailability, achieved systemic exposure and the delivered Ag dose to tissues after administration of the different Ag test items. Determination of single-dose p.o. and i.v. blood-level profiles was intended to provide information on absolute bioavailability (F value). Parallel vehicle control groups were included within each phase.
(§1) Following final blood sampling, animals were euthanised using carbon dioxide asphyxiation, with subsequent exsanguination, prior to macroscopic examination for the investigation of any abnormalities. Tissues for analysis of total Ag content were obtained from animals administered the test items for 28 days. The tissue set comprised: brain (whole), bone marrow (from both femurs), small intestine (duodenum/ileum/jejenum), liver, spleen, ovaries, testes (excluding epididymides) and uterus. The luminal contents of GI tract samples were thoroughly flushed out with cold purified water. After weighing, tissues were retained frozen (− 20 °C).
Analysis occurred within the 48-day assured stability period.
All bioanalytical methods underwent validation before deployment.

[2] = Clinical observations, bodyweight, organ weights and macroscopic examination; format: in vivo, Sprague–Dawley rats; details: repeated dose study, 175 mg AgAc/kg bw/d
Description: Animals were inspected visually at least twice daily for evidence of clinical signs or change in health status. As applicable, injection sites were regularly assessed post-dosing for any local reaction. Bodyweight was measured for all single-dose treatments before administration (typically the day before treatment), on the day of administration and on the day of termination. For the 28-day repeated administration phase, the bodyweight of each animal was recorded pre-treatment, on Day 1 of treatment and then at weekly intervals (including on the day of termination).
as §1

[3] = tested on: serum copper (Cu) levels; assay: Serum Cu levels after 28 days repeated oral dosing (ICP-MS); details: for Serum Cu conc. % of Control group mean: mean (SD)
Description: Samples of whole blood (0.2 mL) were obtained from the jugular vein of animals, with lithium heparin integrated as an anticoagulant. […] Each sample was gently mixed and frozen on dry ice, pending transfer to storage at − 20 °C. […] Serum was obtained by centrifugation (10 min, 2000 RCF) and stored frozen until analysis.
Previous robust TK studies involving the analysis of Ag in biological matrices have utilised aggressive digestion techniques, typically based on digestion/mineralisation in concentrated HNO3 with microwave-accelerated reaction systems. To avoid subsequent precipitation of Ag into insoluble complexes and subsequent loss for analysis, sample stabilisation with an excess of chloride (e.g. HCl) is appropriate. These principles were adopted for sample processing in this investigation. In brief, each blood subsample (50 µL) was combined with 800 µL concentrated HNO3 (65–70%) in a glass pyrex tube. The contents were then digested in an Ultrawave (Milestone, Italy) digester using digestion programme ‘blood’. Afterwards, 800 μL HCl (37%) was added, and 400 μL of the HNO3/HCl digest was combined with 2.60 mL of rhodium internal standard followed by rotary mixing for at least 30 min. The processed sample was then analysed on an Agilent 7900 × inductively coupled plasma mass spectrometer (ICP-MS). […] The digestion was 20 min at elevated temperature and pressure (200 °C, 100 bar, 1500 W). Then, 3 parts of concentrated HCl (35–40%) were added, and the digest was stored at − 20 °C until analysis. A 50 µL subsample was subsequently mixed with 3.95 mL of rhodium internal standard and analysed by ICP-MS. Analysis occurred within the 48-day assured stability period.
All bioanalytical methods underwent validation before deployment. ICP-MS runs included quality control samples and a multilevel calibration. Lower limits of quantitation (LLOQ) for the analytical methods were, respectively, 10 ng/mL for total Ag in blood, 5 ng/mL for total Ag in tissue and 30 ng Cu/mL for Cu in serum.

[4] = 28 d oral 5 mg/kg bw/d [Ag equivalent 3.25 AgAc, 3.2 AgNO3]
[5] = 28 d oral 5 mg/kg bw/d [Ag equivalent 3.25 AgAc, 3.2 AgNO3], female
[6] = 28 d oral 5 mg/kg bw/d [Ag equivalent 3.25 AgAc, 3.2 AgNO3], male
[7] = 28 d oral 175 [114 Ag] mg/kg bw/d
[8] = 28 d oral 175 [114 Ag] mg/kg bw/d, female
[9] = 28 d oral 175 [114 Ag] mg/kg bw/d, male
[10] = 28 d oral 125 [80 Ag] mg/kg bw/d
[11] = 28 d oral 125 [80 Ag] mg/kg bw/d, female
[12] = 28 d oral 125 [80 Ag] mg/kg bw/d, male

What does the source list for `CC(=O)[O-].[Ag+]` [AgAc, Silver(I) acetate]?
Silver level in ovary [1, 4]: 2197 ng Ag/g tissue; Silver level in testis [1, 4]: 167 ng Ag/g tissue; Silver level in uterus [1, 4]: 188 ng Ag/g tissue; Silver level in GI tract [1, 5]: 3797 ng Ag/g tissue; Silver level in bone marrow [1, 5]: 126 ng Ag/g tissue; Silver level in brain [1, 5]: 169 ng Ag/g tissue; Silver level in liver [1, 5]: 305 ng Ag/g tissue; Silver level in spleen [1, 5]: 990 ng Ag/g tissue; Silver level in GI tract [1, 6]: 2770 ng Ag/g tissue; Silver level in bone marrow [1, 6]: 62 ng Ag/g tissue; Silver level in brain [1, 6]: 142 ng Ag/g tissue; Silver level in liver [1, 6]: 55.4 ng Ag/g tissue; Silver level in spleen [1, 6]: 283 ng Ag/g tissue; Silver level in ovary [1, 7]: 39668 ng Ag/g tissue; Silver level in testis [1, 7]: 1531 ng Ag/g tissue; Silver level in uterus [1, 7]: 11094 ng Ag/g tissue; Silver level in GI tract [1, 8]: 103814 ng Ag/g tissue; Silver level in bone marrow [1, 8]: 46761 ng Ag/g tissue; Silver level in brain [1, 8]: 1455 ng Ag/g tissue; Silver level in liver [1, 8]: 21872 ng Ag/g tissue; Silver level in spleen [1, 8]: 141560 ng Ag/g tissue; Silver level in GI tract [1, 9]: 83211 ng Ag/g tissue; Silver level in bone marrow [1, 9]: 21373 ng Ag/g tissue; Silver level in brain [1, 9]: 1458 ng Ag/g tissue; Silver level in liver [1, 9]: 22660 ng Ag/g tissue; Silver level in spleen [1, 9]: 96379 ng Ag/g tissue; Ag in tissue concentrations, comparison between test items ([1]; 28 d oral, matched 35–36 mg Ag/kg bw/d, silver acetate vs nanosilver or silver powder, nanosilver vs silver powder (except spleen of male animals), p < 0.05): significantly higher in all tissues; bodyweight [2]: slight depression in weight gain during Week 1

Which results are given for `O=[N+]([O-])[O-].[Ag+]` [AgNO3, silver(I) nitrate]?
Silver level in ovary [1, 4]: 1484 ng Ag/g tissue; Silver level in testis [1, 4]: 231 ng Ag/g tissue; Silver level in uterus [1, 4]: 145 ng Ag/g tissue; Silver level in GI tract [1, 5]: 2438 ng Ag/g tissue; Silver level in bone marrow [1, 5]: 87 ng Ag/g tissue; Silver level in brain [1, 5]: 177 ng Ag/g tissue; Silver level in liver [1, 5]: 130 ng Ag/g tissue; Silver level in spleen [1, 5]: 722 ng Ag/g tissue; Silver level in GI tract [1, 6]: 1310 ng Ag/g tissue; Silver level in bone marrow [1, 6]: 73 ng Ag/g tissue; Silver level in brain [1, 6]: 142 ng Ag/g tissue; Silver level in liver [1, 6]: 81.7 ng Ag/g tissue; Silver level in spleen [1, 6]: 404 ng Ag/g tissue; Silver level in ovary [1, 10]: 44025 ng Ag/g tissue; Silver level in testis [1, 10]: 1464 ng Ag/g tissue; Silver level in uterus [1, 10]: 22466 ng Ag/g tissue; Silver level in GI tract [1, 11]: 14798 ng Ag/g tissue; Silver level in bone marrow [1, 11]: 25200 ng Ag/g tissue; Silver level in brain [1, 11]: 1019 ng Ag/g tissue; Silver level in liver [1, 11]: 16024 ng Ag/g tissue; Silver level in spleen [1, 11]: 62335 ng Ag/g tissue; Silver level in GI tract [1, 12]: 10592 ng Ag/g tissue; Silver level in bone marrow [1, 12]: 46553 ng Ag/g tissue; Silver level in brain [1, 12]: 1091 ng Ag/g tissue; Silver level in liver [1, 12]: 28859 ng Ag/g tissue; Silver level in spleen [1, 12]: 54070 ng Ag/g tissue; Serum Cu conc. % of Control group mean ([3]; 28 d oral 5 [3.2 Ag] mg/kg bw/d, female): 101 (10) % of Control group mean; Serum Cu conc. % of Control group mean ([3]; 28 d oral 5 [3.2 Ag] mg/kg bw/d, male): 111 (25) % of Control group mean; Serum Cu conc. % of Control group mean ([3]; 28 d oral 55 [35 Ag] mg/kg bw/d, female): 81 (11) % of Control group mean; Serum Cu conc. % of Control group mean ([3]; 28 d oral 55 [35 Ag] mg/kg bw/d, male): 79 (13) % of Control group mean; Serum Cu conc. % of Control group mean [3, 11]: 74 % of Control group mean and 74 (15) % of Control group mean; Serum Cu conc. % of Control group mean [3, 12]: 62 % of Control group mean and 62 (12) % of Control group mean; Effect on circulating Cu levels ([3]; 28 d oral, AgMP up to limit dose 1000 mg/kg bw/d, AgNO3 detectable at 55, statistically significant at 125 mg/kg bw/d): reduction in circulating Cu levels was observed
